Laboratory results taken from patent US20220348558A1, “INHIBITORS OF ENCEPHALITIC ALPHAVIRUSES” (priority 2019, published 2022).
Read-outs that look alike come from different tables or passages of the source.

Legend:
VEEV TC83 = assay: microbe, parasite or virus in culture; type: cell-based; details: Venezuelan equine encephalitis virus, Vero 76, 48 h, read-out: VEEV TC83 EC50 nM
WEEV California = assay: microbe, parasite or virus in culture; type: cell-based; details: Western equine encephalitis virus, Vero 76, 48 h, read-out: WEEV California EC50 nM
EEEV FL93-939 [1] = assay: microbe, parasite or virus in culture; type: cell-based; details: Eastern equine encephalitis virus, Vero 76, 48 h, read-out: EEEV FL93-939 EC50
EEEV BeAr 436087 = assay: microbe, parasite or virus in culture; type: cell-based; details: Eastern equine encephalitis virus, Vero 76, 48 h, read-out: EEEV BeAr 436087 EC50 nM
VEEV TrD = test system: VEEV TrD; set-up: species or system BALB/C mice; details: mouse, in vivo
EEEV FL93-939 [2] = test system: EEEV FL93-939; set-up: species or system C57BL/6 mice; details: mouse, in vivo

In the case of `COc1ccc(-n2c([C@H]3CCCN3)nc3c(C)cc([N+](=O)[O-])cc3c2=O)cc1` [Example 55, (R)-3-(4-methoxyphenyl)-8-methyl-6-nitro-2-(pyrrolidin-2-yl) quinazolin-4 (3H)-one], the EC50 (VEEV TC83) is reported as 1 to 50 nM, the EC50 (WEEV California) is reported as 1 to 50 nM and the EC50 (EEEV FL93-939 [1]) is reported as 51 to 150 nM. For the same molecule, the EC50 (EEEV BeAr 436087) was 51 to 150 nM, the “day 14 % survival” value (VEEV TrD) was 100% and the survival rate (VEEV TrD; 12 mg/kg/day) was 75%. The survival rate (VEEV TrD; 24 mg/kg/day) was 75%, the survival rate (VEEV TrD; 48 mg/kg/day) was 100% and the “% survival on day 21” value (EEEV FL93-939 [2]; 12 mg/kg/day) was 30%. The “% survival on day 21” value (EEEV FL93-939 [2]; 25 mg/kg/day) was 60% and the “% survival on day 21” value (EEEV FL93-939 [2]; 50 mg/kg/day) was 70%.

Molecule `COc1ccc(-n2c([C@@H]3CCCN3C)nc3c(C)cc([N+](=O)[O-])cc3c2=O)cc1` [Example 58, (S)-3-(4-methoxyphenyl)-8-methyl-2-(1-methylpyrrolidin-2-yl)-6-nitroquinazolin-4 (3H)-one] has an EC50 (VEEV TC83) of 1 to 50 nM, an EC50 (WEEV California) of 1 to 50 nM and an EC50 (EEEV FL93-939 [1]) of 51 to 150 nM. For the same molecule, the EC50 (EEEV BeAr 436087) was 51 to 150 nM.

`COc1ccc(-n2c([C@H]3CCCN3)nc3c(C)cc([N+](=O)[O-])cc3c2=O)cc1F` [Example 59] gave an EC50 (VEEV TC83) of 1 to 50 nM, an EC50 (WEEV California) of 1 to 50 nM and an EC50 (EEEV FL93-939 [1]) of 51 to 150 nM. The EC50 (EEEV BeAr 436087) was 51 to 150 nM.

`COc1ccc(-n2c([C@H]3C[C@H](F)CN3)nc3c(C)cc([N+](=O)[O-])cc3c2=O)cc1` [Example 61, 2-((2R,4S)-4-fluoropyrrolidin-2-yl)-3-(4-methoxyphenyl)-8-methyl-6-nitroquinazolin-4 (3H)-one] gave an EC50 (VEEV TC83) of 1 to 50 nM, an EC50 (WEEV California) of 51 to 150 nM and an EC50 (EEEV FL93-939 [1]) of 51 to 150 nM. It also gave an EC50 (EEEV BeAr 436087) of 51 to 150 nM and a melting point of 183.06 to 185.34 °C.

For `COc1ccc(-n2c([C@H]3C[C@H](F)CN3)nc3c(-c4cccnc4)cc([N+](=O)[O-])cc3c2=O)cc1` [Example 86, 2-((2R,4S)-4-fluoropyrrolidin-2-yl)-3-(4-methoxyphenyl)-6-nitro-8-(pyridin-3-yl) quinazolin-4 (3H)-one], the EC50 (VEEV TC83) was 1 to 50 nM, the EC50 (WEEV California) was 1 to 50 nM and the EC50 (EEEV FL93-939 [1]) was 51 to 150 nM. For the same molecule, the EC50 (EEEV BeAr 436087) was 51 to 150 nM.

`COc1ccc(-n2c([C@H]3CCCN3)nc3c(-c4ccc(F)nc4)cc([N+](=O)[O-])cc3c2=O)cc1F` [Example 89, (R)-3-(3-fluoro-4-methoxyphenyl)-8-(6-fluoropyridin-3-yl)-6-nitro-2-(pyrrolidin-2-yl) quinazolin-4 (3H)-one] showed an EC50 (VEEV TC83) of 1 to 50 nM, an EC50 (WEEV California) of 1 to 50 nM and an EC50 (EEEV FL93-939 [1]) of 51 to 150 nM. For the same molecule, the EC50 (EEEV BeAr 436087) was 51 to 150 nM.

Work on `COc1ccc(-n2c([C@H]3CCCN3)nc3c(-c4ccc(C(F)(F)F)nc4)cc(C#N)cc3c2=O)cc1F` [Example 100, (R)-3-(3-fluoro-4-methoxyphenyl)-4-oxo-2-(pyrrolidin-2-yl)-8-(6-(trifluoromethyl)pyridin-3-yl)-3,4-dihydroquinazoline-6-carbonitrile] yielded an EC50 (VEEV TC83) of 1 to 50 nM, an EC50 (WEEV California) of 1 to 50 nM and an EC50 (EEEV FL93-939 [1]) of 51 to 150 nM. It also gave an EC50 (EEEV BeAr 436087) of 51 to 150 nM.

`COc1ccc(-n2c(C3CCCN3)nc3c(-c4ccc(C)nc4)cc(C#N)cc3c2=O)cc1F` (centres unmarked) [Example 101, 3-(3-fluoro-4-methoxyphenyl)-8-(6-methylpyridin-3-yl)-4-oxo-2-(pyrrolidin-2-yl)-3,4-dihydroquinazoline-6-carbonitrile] showed an EC50 (VEEV TC83) of 1 to 50 nM, an EC50 (WEEV California) of 1 to 50 nM and an EC50 (EEEV FL93-939 [1]) of 51 to 150 nM. The EC50 (EEEV BeAr 436087) was 51 to 150 nM.

Molecule `COc1ccc(-n2c([C@H]3CCCN3)nc3c(-c4cccnc4)cc(C#N)cc3c2=O)cc1F` [Example 107, (R)-3-(3-fluoro-4-methoxyphenyl)-4-oxo-8-(pyridin-3-yl)-2-(pyrrolidin-2-yl)-3,4-dihydroquinazoline-6-carbonitrile] has an EC50 (VEEV TC83) of 1 to 50 nM, an EC50 (WEEV California) of 1 to 50 nM and an EC50 (EEEV FL93-939 [1]) of 51 to 150 nM. The EC50 (EEEV BeAr 436087) was 1 to 50 nM.
